Results on 1 compound are retold here after EPA's ToxValDB 9.5 (doi:10.2903/j.efsa.2010.1716).

Values after ≈ are worked out from the molar mass of the structure shown.

The test system of data set [1] is Apis mellifera. Conditions: acute; duration: 48 hours; oral; unspecified; mortality.
Data set [2] relates to Bibionidae. As to conditions: chronic/long-term; duration: 28 days; seedling emergence.
The test system of data set [3] is Colinus virginianus.
The subject of data set [4] is Danio rerio. As to conditions: acute; duration: 96 hours; mortality.
Data set [5] has as its system Daphnia magna. Conditions: chronic/long-term; duration: 21 days; reproduction.
The test system of data set [6] is Oryctolagus sp. Conditions: reproduction developmental; body weight.
The test system of data set [7] is Rattus norvegicus.
The test system of data set [8] is Tagia sp. As to conditions: acute; duration: 14 days; mortality.
For data set [9], the system named is Aphidius rhopalosiphi. Put plainly: LR50; higher = less toxic. As to conditions: not reported; mortality.

By NOAEL is commonly meant the highest dose or exposure tested at which no adverse effect was seen. In the case of `c1ccc(CNc2ncnc3nc[nH]c23)cc1` [N-Benzyladenine], the LD50 was more than 58.7 µg/piece in data set [1]; 1600 mg/kg-day in data set [3] (acute, oral, mortality); 1580 mg/kg-day in data set [7] (acute, oral, mortality). Also, the NOEC in data set [2] is 4.52 mg/L; in data set [3] (reproduction developmental) it was 41.3 mg/kg-day; in data set [5] it was 4 mg/L. The LC50 in data set [3] (acute, oral, diet, mortality) was more than 2880 mg/kg-day; in data set [4] it was 32 mg/L (≈ 142 µM); in data set [8], more than 1000 mg/kg. The same compound had an NOAEL in data set [6] of less than 10 mg/kg-day. Also, the NOEL in data set [7] (reproduction developmental, body weight) worked out at 30 mg/kg-day. This compound also had an LR50 in data set [9] of 36.2 g/ha.
